From patent publication US20260191848A1, “METHODS OF REVERSING PARP-RESISTANCE IN CANCER” (THE TRUSTEES OF COLUMBIA UNIVERSITY IN THE CITY OF NEW YORK, priority 2023, published 2026)
“Also recorded” adds a separate entry of the source.

Legend:
[1] = system: relapsed high-grade ovarian cancer; conditions: relapsed high-grade ovarian cancer patients, p=0.007; cited from earlier work
[2] = system: talazoparib-resistant Bard1-def tumors; experiment: Talazoparib-resistant Bard1-def orthotopic allograft in B6/129F1 mice (tumor growth, weight, immunostaining, body weight); type: in vivo, mouse; conditions: for body weight: from treatment initiation until endpoint, talazoparib 0.3 mg/kg/day, axitinib 30 mg/kg/day
Procedure: (§2) Treatment with Tal (0.3 mg/kg body weight per day, five days/week, oral gavage) began two weeks following tumor-cell injection. Tumors were collected after tumor relapse in the Tal-treated group and were then dissociated and selected to generate Tal-resistant Brca1-def breast cancer cell lines. […] Tal-resistant, Brca1-def tumors were then isolated at 13 weeks following tumor-cell injection. n=32 for Veh-treated mice; n=24 for Tal-treated mice. Data are presented as mean values±SEM. P values were determined by a two-tailed, unpaired, Mann-Whitney test. * at 2 weeks indicates P=0.0169; *** at 3 weeks indicates P=0.0007; **** at 5 and 7 weeks indicates P<0.0001. […] P values were determined by a two-tailed, unpaired, Mann-Whitney test. * at 3 weeks indicates P=0.0174; ns: not significant. […] Treatment began one-week post tumor-cell injection. […] Data are presented as mean values±SEM. P values were determined by a two-tailed, unpaired, Mann-Whitney test. ** at 3 and 4 weeks indicates P=0.0043; ** at 5 weeks indicates P=0.0095.

[3] = system: talazoparib-resistant Brca1-def tumors; experiment: Talazoparib-resistant Brca1-def orthotopic allograft in B6/129F1 mice (tumor growth, weight, immunostaining, body weight); type: in vivo, mouse; conditions: for body weight: from treatment initiation until endpoint, talazoparib 0.3 mg/kg/day, axitinib 30 mg/kg/day
Procedure: as §2

[4] = system: Bard1-def Tal-sensitive tumors; experiment: In-vivo PARPi-response-and-recurrence model, Bard1-def orthotopic allograft (talazoparib-sensitive)
Procedure: (§3) Treatment with Tal (0.3 mg/kg body weight per day, five days/week, oral gavage) began two weeks following tumor-cell injection. Tumors were collected after tumor relapse in the Tal-treated group and were then dissociated and selected to generate Tal-resistant Brca1-def breast cancer cell lines. […] Tal-resistant, Brca1-def tumors were then isolated at 13 weeks following tumor-cell injection. n=32 for Veh-treated mice; n=24 for Tal-treated mice. Data are presented as mean values±SEM. […] FIG. 1C, Mice were injected with the Tal-resistant (“Tal-Res”), Brca1-def breast cancer cell line isolated in B and then checked for sensitivity to Tal. n=21 for Veh-treated mice; n=31 for Tal-treated mice. […] Treatment began one-week post tumor-cell injection. […] Data are presented as mean values±SEM. […] FIG. 1F, Mice were injected with the Tal-Res, Bard1-def breast cancer cell line isolated in E and then checked for sensitivity to Tal. n=12 for Veh-treated mice; n=14 for Tal-treated mice.
(§4) To study mechanisms of PARPi resistance in vivo, mammary glands from syngeneic B6/129F1 mice were orthotopically injected with luciferase-labeled Brca1- or Bard1-deficient mammary cancer cell lines (hereafter referred to as Brca1-def and Bard1-def) derived from Brca1- or Bard1-conditionally deleted mice^23 (FIGS. 1A and 1D). As tumors started to grow, tumor-bearing mice were randomized and treated five days/week with either vehicle or the PARPi talazoparib (referred to as “Tal” in the figures) at a dose of 0.3 mg/kg body weight/day starting at either 14 days (Brca1-def) or 7 days (Bard1-def) post tumor-cell injection. Tumor size was monitored weekly (FIGS. 1B and 1E). […] While tumor growth in Brca1-def models was monitored for 13 weeks post tumor-cell injection, Bard1-def models could only be monitored for 5 weeks post tumor-cell injection due to the onset of cachexia, as described in the previous studies^36. PARPi-resistant tumors were then collected, and cancer cells were purified and re-injected into the mammary glands of new B6/129F1 recipient mice. Mice were treated following the same dosing schedule as described above.

[5] = system: Brca1-def Tal-sensitive tumors; experiment: In-vivo PARPi-response-and-recurrence model, Brca1-def orthotopic allograft (talazoparib-sensitive)
Procedure: as §3, §4

[6] = system: talazoparib-resistant Brca1-def tumor cells (pAKT Ser473, pSTAT3); experiment: Immunoblot after recombinant PGF treatment, talazoparib-resistant Brca1-def tumor cells (Con vs Flt1i); type: cell-based; conditions: 50 ng/ml mouse recombinant PGF, serum-free medium, 15 s
Procedure: (§1) FIG. 18A-FIG. 18H—FLT1 activation in Brca1- and Bard1-def breast tumor cells induces pro-survival AKT signaling. (FIG. 18A, FIG. 18B) Immunoblot analysis was performed on lysates from Flt1-expressing (Con) and -deficient (Flt1i), talazoparib-resistant (“Res”) Brca1- and Bard1-def tumor cells, that were treated with 50 ng/ml of mouse PGF protein using antibodies against phosphorylated-AKT at serine 473 (pAKT Ser473), AKT, and β-actin. […] Scale bars, 20 μm. (FIG. 18D) Immunostained sections from (C) were quantified using automated QuPath software to identify positively stained cells. n=5 mice for Sen and Res groups for both models. Data were presented as mean values±SEM. […] (FIG. 18E) Representative images of IHC for pAKT Ser473 staining on talazoparib-treated “Tal”, Lenti-Con- and Flt1i-expressing Res tumor sections from both models (see FIG. 3C). Scale bars, 20 μm. […] (FIG. 18G) Representative images of IHC for pAKT Ser473 on Tal-treated and Tal+Axi-treated tumor sections from both models (see FIG. 4A/D). Scale bars, 20 μm. (FIG. 18H) Immunostained sections from (G) were quantified using automated QuPath software to identify positively stained cells. For the Brca1-def model, n=4 tumors from both Tal-treated and Tal+Axi-treated mice. For the Bard1-def model, n=5 tumors from both Tal-treated and Tal+Axi-treated mice. Data were presented as mean values±SEM. […]

[7] = system: talazoparib-resistant Bard1-def tumor cells (pAKT Ser473, pSTAT3); experiment: Immunoblot after recombinant PGF treatment, talazoparib-resistant Bard1-def tumor cells (Con vs Flt1i); type: cell-based; conditions: 50 ng/ml mouse recombinant PGF, serum-free medium, 10 min
Procedure: as §1

[8] = talazoparib alone 0.3 mg/kg/day, five days/week, vs vehicle

Molecule: O=C(c1cc(Cc2n[nH]c(=O)c3ccccc23)ccc1F)N1CCN(C(=O)C2CC2)CC1 [olaparib]
- median progression-free survival (PFS) [1]: 8.2 months

Molecule: CNC(=O)c1ccccc1Sc1ccc2c(/C=C/c3ccccn3)n[nH]c2c1 [axitinib]
- body weight [2]: remained stable
- body weight [3]: remained stable

Molecule: Cn1ncnc1[C@H]1c2n[nH]c(=O)c3cc(F)cc(c23)N[C@@H]1c1ccc(F)cc1 [talazoparib]
- relapse tumors arose, time post tumor-cell injection ([4]; Tal treatment begun one week post tumor-cell injection): about three
- development of drug resistance (recurrence of tumors) ([4]; continued talazoparib treatment, monitored 5 weeks post tumor-cell injection): eventually developed drug resistance; also recorded: soon progressed
- tumor growth ([4]; talazoparib 0.3 mg/kg body weight/day, five days/week, oral gavage, from 7 days post tumor-cell injection, vs vehicle): responded initially
- body weight [2]: remained stable
- tumor growth and weight at endpoint, Flt1-repressed (Flt1i) resistant tumor cells ([2]; talazoparib 0.3 mg/kg body weight/day, five days/week, Flt1i+Tal vs Lenti-Con+Tal, endpoint 3 weeks): re-sensitizes PARPi-resistant tumors to talazoparib
- tumor regression / response of PARPi-resistant tumor lines to PARPi treatment [2, 8]: no tumor regression; also recorded: failed to respond in-vivo
- body weight [3]: remained stable
- tumor growth and weight at endpoint, Flt1-repressed (Flt1i) resistant tumor cells ([3]; talazoparib 0.3 mg/kg body weight/day, five days/week, Flt1i+Tal vs Lenti-Con+Tal, endpoint 4 weeks): re-sensitizes PARPi-resistant tumors to talazoparib
- tumor regression / response of PARPi-resistant tumor lines to PARPi treatment [3, 8]: no tumor regression; also recorded: failed to respond in-vivo
- relapse, time following the start of Tal treatment ([5]; Tal 0.3 mg/kg per day, five days/week, oral gavage, begun two weeks after tumor-cell injection): about seven
- development of drug resistance (recurrence of tumors) ([5]; continued talazoparib treatment, monitored 13 weeks post tumor-cell injection): eventually developed drug resistance; also recorded: eventually became refractory to the treatment
- tumor growth ([5]; talazoparib 0.3 mg/kg body weight/day, five days/week, oral gavage, from 14 days post tumor-cell injection, vs vehicle): suppressed tumor growth for several weeks

B1: PGF: mouse recombinant PGF (R&D Systems, #465-PL-010), placental growth factor (protein)
chain: VHSQGALSAGNNSTEVEVVPFNEVWGRSYCRPMEKLVYILDEYPDEVSHIFSPSCVLLSRCSGCCGDEGLHCVPIKTANITMQILKIPPNRDPHFYVEMTFSQDVLCECRPILETTKAERRKTKGKRKRSRNSQTEEPHP
- activation of AKT (pAKT Ser473 immunoblot) [6]: FLT1-dependent activation of AKT
- activation of STAT3 (pSTAT3 immunoblot) [6]: not STAT3
- activation of AKT (pAKT Ser473 immunoblot) [7]: FLT1-dependent activation of AKT
- activation of STAT3 (pSTAT3 immunoblot) [7]: not STAT3
